According to paper PMC8272121, “Synthesis and Evaluation of Chalcone-Quinoline Based Molecular Hybrids as Potential Anti-Malarial Agents” (Molecules, 2021):
Values after ≈ are worked out from the molar mass of the structure shown. Where two headings read alike, the source gives them in different places.

Assays:
[1] = Aqueous solubility, miniaturized shake flask method (HPLC-DAD); type: physicochemical; conditions: aqueous solution, aqueous buffer, thermodynamic from solid, pH 6.5, shake flask 20 h, 25 °C
Protocol: All the synthesized molecular hybrids (6-27) were evaluated for in vitro antiplasmodial activity against the drug-sensitive strain (NF54) of P. falciparum and for cytotoxicity against the Chinese Hamster Ovary (CHO) mammalian cell line using emetine as a reference drug. Aqueous solubility was determined at pH 6.5 (Table 2). Aqueous solubility. Water solubility was analyzed using a miniaturized shake flask method. Ten millimolar stock solutions of each of the compounds were used to prepare calibration standards (10-220 μM) in DMSO. The same 10 mM stock solutions were accurately dispensed in duplicate into 96-well plates, and the DMSO, dried down ([…],90 min, 37 °C). Thereafter, the samples were reconstituted (200 μM) in an aqueous solution and shaken (20 h, 25 °C). The solutions were analyzed by means of HPLC-DAD (Agilent1200 Rapid Resolution HPLC with a diode array detector). Best fit calibration curves were constructed using the calibration standards, which were used to determine the aqueous samples' solubility.

[2] = system: P. falciparum NF54 (drug-sensitive strain); assay: In vitro antiplasmodial assay (parasite lactate dehydrogenase), chloroquine-sensitive NF54 strain; type: cell-based, Plasmodium falciparum; conditions: sensitive (NF54) strain of P. falciparum, pLDH assay, 48 h, mean of ≥2 independent experiments, read-out: PfNF54 IC50
Protocol: All the synthesized molecular hybrids (6–27) were evaluated for in vitro antiplasmodial activity against the drug-sensitive strain (NF54) of P. falciparum and for cytotoxicity against the Chinese Hamster Ovary (CHO) mammalian cell line using emetine as a reference drug. Aqueous solubility was determined at pH 6.5 (Table 2).
In-vitro anti-plasmodium assay. Compounds were tested using parasite lactate dehydrogenase assay as a marker for parasite survival. The respective stock solutions of CQ diphosphate and test compounds were prepared by dissolving 2 mg/mL in distilled water (for CQ) and 100% DMSO for test compounds. The solutions were then stored at −20 °C, with further dilutions prepared on the day of the experiment. The cultures were synchronized in the ring stage as described previously using 15 mL of 5% (w/v) d-sorbitol in water. Synchronous cultures of PfNF54 (CQS) in the late trophozoite stage were prepared to 2% parasitemia and 2% hematocrit. […] Following incubation, 100 μL of MalStat reagent and 15 μL of resuspended culture were combined, followed by addition of 25 μL of nitro blue tetrazolium chloride (NBT). The plates were kept in the dark for about 10 min to fully develop, and absorbance was measured at 620 nm on a microplate reader. Raw data were exported to Microsoft Excel for dose-response analysis.

[3] = system: Chinese Hamster Ovary (CHO) mammalian cell line; assay: Cytotoxicity MTT assay on CHO cells; type: cell-based; conditions: for IC50: Cricetulus griseus, CHO, Chinese hamster ovarian cell line, MTT, 48 h; for SI (selectivity index): SI = IC50 (CHO)/IC50 (PfNF54)
Protocol: All the synthesized molecular hybrids (6–27) were evaluated for in vitro antiplasmodial activity against the drug-sensitive strain (NF54) of P. falciparum and for cytotoxicity against the Chinese Hamster Ovary (CHO) mammalian cell line using emetine as a reference drug. Aqueous solubility was determined at pH 6.5 (Table 2). Cytotoxicity assay. […] The reference standard, emetine, was prepared to 2 mg/mL in distilled water while stock solutions of test compounds were prepared to 20 mg/mL in 100% DMSO with the highest concentration of solvent to which the cells were exposed having no measurable effect on the cell viability. The initial concentration of the compounds and control was 100 μg/mL, which was serially diluted in complete medium with 10-fold dilutions to give six concentrations, the lowest being 0.001 μg/mL. Plates were incubated for 48 h with 100 μL of drug and 100 μL of cell suspension in each well and developed afterward by adding 25 μL of sterile MTT (Thermo Fisher Scientific) to each well, followed by 4 h of incubation in the dark. The plates were then centrifuged; the medium was aspirated, and 100 μL of DMSO was added to dissolve crystals before reading the absorbance at 540 nm. Data were analyzed, and the sigmoidal dose-response was derived using GraphPad Prism v 4.0 software (La Jolla). All experiments were performed for at least three independent biological repeats, each with technical triplicates.

Molecule | solubility at 20 h [1] [µM] | IC50 ([2]; Plasmodium falciparum) [µM] | melting point [°C] | IC50 [3] [µM] | SI (selectivity index) [3] | IC50 [2] [µM]
CC(=O)c1ccc(S(=O)(=O)NCCNc2ccnc3cc(Cl)ccc23)cc1 [Compound 4, 4-acetyl-N-(2-((7-chloroquinolin-4-yl)amino)ethyl)benzenesulfonamide] | 200 (≈ 80.8 µg/mL) | 0.45 | 200 to 204 | 26.3 | 58.4 | 
COc1ccc(/C=C/C(=O)c2ccc(S(=O)(=O)NCCCNc3ccnc4cc(Cl)ccc34)cc2)cc1OC [Compound 14, (E)-N-(3-((7-chloroquinolin-4-yl)amino)propyl)-4-(3-(3,4-dimethoxyphenyl)acryloyl)benzenesulfonamide] |  | 0.32 | 222 to 224 | 43.4 | 135.6 | 
COc1cc(/C=C/C(=O)c2ccc(S(=O)(=O)NCCCNc3ccnc4cc(Cl)ccc34)cc2)cc(OC)c1OC [Compound 16, (E)-N-(3-((7-chloroquinolin-4-yl)amino)propyl)-4-(3-(3,4,5-trimethoxyphenyl)acryloyl)benzenesulfonamide] | 15 (≈ 8.94 µg/mL) | 0.58 | 197 to 200 | 22.6 | 39.0 | 
COc1ccc(/C=C/C(=O)c2ccc(S(=O)(=O)NCCNc3ccnc4cc(Cl)ccc34)cc2)cc1 [Compound 17, (E)-N-(2-((7-chloroquinolin-4-yl)amino)ethyl)-4-(3-(4-methoxyphenyl)acryloyl)benzenesulfonamide] | 185 (≈ 96.6 µg/mL) | 0.49 | 222 to 225 | 17.5 | 35.7 | 
COc1ccc(/C=C/C(=O)c2ccc(S(=O)(=O)NCCNc3ccnc4cc(Cl)ccc34)cc2)cc1OC [Compound 19, (E)-N-(2-((7-chloroquinolin-4-yl)amino)ethyl)-4-(3-(3,4-dimethoxyphenyl)acryloyl)benzenesulfonamide] |  | 0.33 | 223 to 225 | 45.1 | 136.7 | 
Cc1ccc(/C=C/C(=O)c2ccc(S(=O)(=O)NCCNc3ccnc4cc(Cl)ccc34)cc2)cc1 [Compound 22, (E)-N-(2-((7-chloroquinolin-4-yl)amino)ethyl)-4-(3-(p-tolyl)acryloyl)benzenesulfonamide] | 190 (≈ 96.1 µg/mL) | 0.39 | 184 to 187 | 24.9 | 63.8 | 
O=C(/C=C/c1ccc(OC(F)(F)F)cc1)c1ccc(S(=O)(=O)NCCCNc2ccnc3cc(Cl)ccc23)cc1 [Compound 27, (E)-N-(3-((7-chloroquinolin-4-yl)amino)propyl)-4-(3-(4-(trifluoromethoxy)phenyl)acryloyl)benzenesulfonamide] |  | 0.51 | 223 to 225 | 44 | 86.3 | 
CC[C@H]1CN2CCc3cc(OC)c(OC)cc3[C@@H]2C[C@@H]1C[C@H]1NCCc2cc(OC)c(OC)cc21 [Emetine, emetine, reference compound] |  |  |  | 0.0034 |  | 
(E)-N-(2-((7-chloroquinolin-4-yl)amino)ethyl)-4-(3-ferrocenyl)acryloyl)benzenesulfonamide [Compound 23] |  |  |  |  |  | 1.53

Now from value to molecule, other results behind:

solubility at 20 h [1] [µM] | IC50 ([2]; Plasmodium falciparum) [µM] | melting point [°C] | Molecule | IC50 [3] [µM] | SI (selectivity index) [3] | IC50 [2] [µM]
< 5 | 0.48 | 181 to 183 | CC(=O)c1ccc(S(=O)(=O)NCCCNc2ccnc3cc(Cl)ccc23)cc1 [Compound 5, 4-acetyl-N-(3-((7-chloroquinolin-4-yl)amino)propyl)benzenesulfonamide] | > 50 | >104 | 
 | 1.67 | 210 to 212 | O=C(C=Cc1ccccc1)c1ccc(S(=O)(=O)NCCCNc2ccnc3cc(Cl)ccc23)cc1 [Compound 6, N-(3-((7-chloroquinolin-4-yl)amino)propyl)-4-cinnamoylbenzenesulfonamide] | > 50 | >29 | 
130 (≈ 67.6 µg/mL) | 0.37 | 209 to 213 | Cc1ccc(/C=C/C(=O)c2ccc(S(=O)(=O)NCCCNc3ccnc4cc(Cl)ccc34)cc2)cc1 [Compound 7, (E)-N-(3-((7-chloroquinolin-4-yl)amino)propyl)-4-(3-(p-tolyl)acryloyl)benzenesulfonamide] | 25.1 | 67.8 | 
< 5 | 0.28 | 216 to 218 | O=C(/C=C/c1ccc(F)cc1)c1ccc(S(=O)(=O)NCCCNc2ccnc3cc(Cl)ccc23)cc1 [Compound 9, (E)-N-(3-((7-chloroquinolin-4-yl)amino)propyl)-4-(3-(4-fluorophenyl)acryloyl)benzenesulfonamide] | 14.7 | 52.5 | 
< 5 | 0.54 | 223 to 225 | O=C(/C=C/c1c(F)cccc1F)c1ccc(S(=O)(=O)NCCCNc2ccnc3cc(Cl)ccc23)cc1 [Compound 10, (E)-N-(3-((7-chloroquinolin-4-yl)amino)propyl)-4-(3-(2,6-difluorophenyl)acryloyl)benzenesulfonamide] | 27.6 | 51.1 | 
< 5 | 2.58 | 212 to 214 | O=C(/C=C/c1ccc(F)c(F)c1)c1ccc(S(=O)(=O)NCCCNc2ccnc3cc(Cl)ccc23)cc1 [Compound 13, (E)-N-(3-((7-chloroquinolin-4-yl)amino)propyl)-4-(3-(3,4-difluorophenyl)acryloyl)benzenesulfonamide] | > 300 | >116 | 
5 (≈ 2.62 µg/mL) | 0.86 | 223 to 225 | O=C(/C=C/c1ccccc1F)c1ccc(S(=O)(=O)NCCCNc2ccnc3cc(Cl)ccc23)cc1 [Compound 15, (E)-N-(3-((7-chloroquinolin-4-yl)amino)propyl)-4-(3-(2-fluorophenyl)acryloyl)benzenesulfonamide] | 45.5 | 52.9 | 
130 (≈ 70.5 µg/mL) | 0.5 | 216 to 218 | O=C(/C=C/c1ccc(F)cc1F)c1ccc(S(=O)(=O)NCCCNc2ccnc3cc(Cl)ccc23)cc1 [Compound 18, (E)-N-(3-((7-chloroquinolin-4-yl)amino)propyl)-4-(3-(2,4-difluorophenyl)acryloyl)benzenesulfonamide] | 22.4 | 45.2 | 
 | 0.79 | 219 to 221 | O=C(/C=C/c1cc(F)ccc1F)c1ccc(S(=O)(=O)NCCCNc2ccnc3cc(Cl)ccc23)cc1 [Compound 20, (E)-N-(3-((7-chloroquinolin-4-yl)amino)propyl)-4-(3-(2,5-difluorophenyl)acryloyl)benzenesulfonamide] | 43.7 | 55.3 | 
200 (≈ 99.2 µg/mL) | 4.45 | 222 to 224 | O=C(/C=C/c1ccco1)c1ccc(S(=O)(=O)NCCCNc2ccnc3cc(Cl)ccc23)cc1 [Compound 21, (E)-N-(3-((7-chloroquinolin-4-yl)amino)propyl)-4-(3-(furan-2-yl)acryloyl)benzenesulfonamide] | > 50 | >11 | 
